Experimental data as given in patent publication US10864245B2, “Activation and expansion of NKG2C+ NK cells” (Deutsches Rheuma-Forschungszentrum Berlin, priority 2018, dated 2020).

Tests used:
adaptive NKG2C+ NK cells = experiment: Stimulation of purified NK cells with peptide-pulsed RMA-S/HLA-E (effector functions); assay type: cell-based, human; conditions: RMA-S/HLA-E pulsed with 300 μM peptide; 6 h; NK cells from healthy HCMV+ individuals
Protocol: HLA-E surface stabilization was induced as described previously^30. In brief, 300 μM synthetic peptides (Peptides&Elephants) were added to target cells cultured at a density of 2×10^6 cells/ml in serum-free Opti-MEM (ThermoFisher) and incubated for 16 h at 37° C. Peptide-pulsed cells were either stained for FACS analysis of HLA-E surface expression or washed with complete media and used in co-cultures. For pulse-chase experiments, cells were pulsed as above, washed twice, and resuspended in Opti-MEM without peptide. HLA-E surface expression was monitored by FACS analysis at indicated time points.
CD56^+ MACS-enriched cells were stained with viability dye, CD3, and CD56, FACS-sorted for viable CD3^−CD56^+ NK cells, and rested overnight in complete medium. Purified NK cells were stimulated by co-culture with peptide-pulsed (300 μM) irradiated (30 Gy) target cells at a 2:1 NK:target ratio for 6 h in the presence of 300 μM synthetic peptides.
For blocking experiments, rested FACS-sorted viable CD3^− CD56^dim NKG2A^− NKG2C+ NK cells were treated with 20 μg/ml IgG1 isotype control or anti-CD94 antibody (both RnD Systems) for 15 min prior to start of the co-culture.

NKG2C+ NK cells = experiment: In vitro culture of CD56dim NK cells from HCMV− donors with peptide-pulsed targets and IL-15 (proliferation, accumulation); assay type: cell-based, human; conditions: RMA-S/HLA-E/LFA-3, IL-15, IL-12/18 during initial 20 h, 14 days
Protocol: CD56^+ MACS-enriched cells from HCMV^− donors were stained with viability dye, CD3, and CD56, FACS-sorted for viable CD3^− CD56^dim NK cells, and rested overnight in complete medium. Purified CD56^dim NK cells were labeled with 2 μM CellTrace violet (Thermo Fisher) according to the manufacturer's instructions. 5×10^5 labeled NK cells were cultured with 1×10^5 peptide-pulsed […] irradiated (30 Gy) target cells in complete medium containing 10 ng/ml IL-15 (Miltenyi Biotec) in U-bottom 96-well plates (Greiner Bio-One) for the indicated times. Complete medium containing IL-15 was replaced every third to fourth day. On days 4, 7, and 11 of culture, 1×10^5 fresh peptide-pulsed irradiated target cells were added to the cultures.
Where indicated, 10 ng/ml IL-12 (Miltenyi Biotec) and 100 ng/ml IL-18 (MBL) were added at the start of co-cultures. After 20 h of culture, the cells were washed 3 times and resuspended in complete medium containing 10 ng/ml IL-15. Control wells without IL-12/18 were treated equally. To determine NKG2C+ NK cell numbers per μl of culture medium, CountBright Absolute Counting Beads (ThermoFisher) were used according to the manufacturer's instructions.
Proliferation and replication indices^60 of NKG2C+ cells were calculated using the proliferation analysis platform included in FlowJo v9.9 (FlowJo LLC) and normalized to those of NKG2C^− cells in the same condition.

**Q.** What does the source list for VMAPRTLVL?
**A.** TNF, IFN-γ, CD107a, and CCL3 expression by adaptive NKG2C+ NK cells (adaptive NKG2C+ NK cells): differentially triggered; NKG2C+ NK-cell absolute counts and frequencies (NKG2C+ NK cells): increase of NKG2C+ NK-cell absolute counts as well as frequencies
